Each structure is given as a SMILES string. Counter-ions that a name gives are not always drawn.

A short description of this data set: Genotoxicity studies of bupivacaine HCl (4 in vitro, 2 in vivo). The settings on record: 4 in vitro studies and 2 in vivo studies. The text has this:
The distribution, metabolism, and excretion of bupivacaine across species is characterized in the literature including data showing that, following absorption, bupivacaine is rapidly and readily distributed to tissues, with the highest concentrations in highly perfused tissues. In general, the metabolic profile of bupivacaine is similar across species although quantitatively different, with no novel metabolite identified in humans (Goehl, et al., 1973, Carson 2000). The excretion of bupivacaine in monkeys and humans is predominantly in the urine; in rats, excretion in urine and feces is generally similar; and in dogs, only small amounts of excretion of bupivacaine in the urine have been reported.

`CCCCN1CCCCC1C(=O)Nc1c(C)cccc1C` (stereo not shown) [bupivacaine HCl]: the Genotoxicity result is reported as “no safety concerns identified”.
